Literature values, collected in patent US11000540B1, “Treatment for reducing adverse events including chemotherapy discomfort and other conditions” (priority 2019, dated 2021).

conditions: buffer pair acid/conjugate base

Molecule | pKa of Acid (or pH of 1:1 mixture)
Boric Acid [Boric Acid/Borate] | 9.0
O=S(=O)(O)CCNC1CCCCC1 [N-Cyclohexy1-2-aminoethanesuifonic acid] | 9.3
Tris(hydroxymethyl)aminomethane | 8.2
NCC(=O)O [Glycine/Glycine anion, Glycine] | 9.60
